Biological target: phosphorylated active hERK2 enzyme (Homo sapiens (Human), UniProt P28482)
Assay: Active Human ERK2 (hERK2) Activity Assay (IMAP-FP)
Assay type: biochemical
Conditions: Table 6, 0.5 nM hERK2, 30 μM ATP, 10 point titration, read-out: AERK2 IC50
In short: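 IMAP detection beads in buffer with 24 mM NaCl stopped the reaction, and fluorescence polarization was read after 60 min binding.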

Chain of phosphorylated active hERK2 enzyme (P28482 whole entry): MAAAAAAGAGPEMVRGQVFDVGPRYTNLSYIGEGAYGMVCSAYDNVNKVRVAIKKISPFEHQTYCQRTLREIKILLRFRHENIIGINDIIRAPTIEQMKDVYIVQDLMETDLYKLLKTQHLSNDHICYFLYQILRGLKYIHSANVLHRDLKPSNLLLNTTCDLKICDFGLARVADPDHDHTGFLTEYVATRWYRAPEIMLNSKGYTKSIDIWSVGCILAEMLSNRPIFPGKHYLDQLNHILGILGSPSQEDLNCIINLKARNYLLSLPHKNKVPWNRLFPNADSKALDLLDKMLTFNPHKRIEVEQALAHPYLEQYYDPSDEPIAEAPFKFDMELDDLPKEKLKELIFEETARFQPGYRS

Row | SMILES | IC50
1 | C[C@@H](NC(=O)Nc1cc2[nH]nc(NC3CCC3)c2cn1)c1ccccc1 [Example 185, 1-[3-(cyclobutylamino)-1H-pyrazolo[4,3-c]pyridin-6-yl]-3-[(1R)-1-phenylethyl]urea] | 1.5 nM
2 | C[C@@H](NC(=O)Nc1cc2[nH]nc(NC3CCCC3)c2cn1)c1ccccc1 [Example 186, 1-[3-(cyclopentyl-amino)-1H-pyrazolo[4,3-c]-pyridin-6-yl]-3-[(1R)-1-phenylethyl]urea] | 2.3 nM
3 | C[C@@H](NC(=O)Nc1cc2[nH]nc(NC3CCCCC3)c2cn1)c1ccccc1 [Example 187, 1-[3-(cyclohexyl-amino)-1H-pyrazolo[4,3-c]pyridin-6-yl]-3-[(1R)-1-phenylethyl]urea] | 6.8 nM
4 | CC(CS(C)(=O)=O)Nc1n[nH]c2cc(NC(=O)N[C@H](C)c3ccccc3)ncc12 (stereo partly drawn) [Example 192, 1-(3-{[1-methyl-2-(methylsulfonyl)-ethyl]amino}-1H-pyrazolo[4,3-c]-pyridin-6-yl)-3-[(1R)-1-phenylethyl]urea] | 79.8 nM
5 | C[C@@H](NC(=O)Nc1cc2[nH]nc(NC3CCC(F)(F)CC3)c2cn1)c1ccccc1 [Example 195, 1-{3-[(4,4-difluorocyclohexyl)amino]-1H-pyrazolo[4,3-c]-pyridin-6-yl}-3-[(1R)-1-phenylethyl]urea] | 10.2 nM
6 | C[C@@H](NC(=O)Nc1cc2[nH]nc(NC(=O)CC(F)(F)F)c2cn1)c1ccccc1 [Example 199, 3,3,3-trifluoro-N-[6-({[(1R)-1-phenylethyl]-carbamoyl}amino)-1H-pyrazolo[4,3-c]-pyridin-3-yl]-propanamide] | 1.1 nM
7 | Cc1nnsc1C(=O)Nc1n[nH]c2cc(NC(=O)N[C@H](C)c3ccccc3)ncc12 [Example 200, 4-methyl-N-[6-({[(1R)-1-phenylethyl]-carbamoyl}amino)-1H-pyrazolo[4,3-c]pyridin-3-yl]-1,2,3-thiadiazole-5-carboxamide] | 1.1 nM
8 | C[C@@H](NC(=O)Nc1cc2[nH]nc(NC(=O)Cc3ccccc3)c2cn1)c1ccccc1 [Example 202, 2-phenyl-N-[6-({[(1R)-1-phenylethyl]-carbamoyl}amino)-1H-pyrazolo[4,3-c]pyridin-3-yl]-acetamide] | 0.6 nM
9 | C[C@@H](NC(=O)Nc1cc2[nH]nc(NC(=O)CC3CCCCC3)c2cn1)c1ccccc1 [Example 203, 2-cyclohexyl-N-[6-({[(1R)-1-phenylethyl]-carbamoyl}amino)-1H-pyrazolo[4,3-c]pyridin-3-yl]-acetamide] | 3.6 nM
10 | C[C@@H](NC(=O)Nc1cc2[nH]nc(NC(=O)C3CCCCC3)c2cn1)c1ccccc1 [Example 204, N-[6-({[(1R)-1-phenylethyl]-carbamoyl}amino)-1H-pyrazolo[4,3-c]pyridin-3-yl]-cyclohexane-carboxamide] | 5.9 nM
11 | C[C@@H](NC(=O)Nc1cc2[nH]nc(NC(=O)CN(C)C)c2cn1)c1ccccc1 [Example 208] | 27.8 nM
12 | C[C@@H](NC(=O)Nc1cc2[nH]nc(NC(=O)c3cccnc3)c2cn1)c1ccccc1 [Example 211, N-[6-({[(1R)-1-phenylethyl]-carbamoyl}amino)-1H-pyrazolo[4,3-c]pyridin-3-yl]-pyridine-3-carboxamide] | 3.1 nM
13 | C[C@@H](NC(=O)Nc1cc2[nH]nc(NC(=O)c3ccncc3)c2cn1)c1ccccc1 [Example 214, N-[6-({[(1R)-1-phenylethyl]-carbamoyl}amino)-1H-pyrazolo[4,3-c]pyridin-3-yl]-pyridine-4-carboxamide] | 2.9 nM
14 | C[C@@H](NC(=O)Nc1cc2[nH]nc(NC(=O)C(C)(C)C)c2cn1)c1ccccc1 [Example 215, 2,2-dimethyl-N-[6-({[(1R)-1-phenylethyl]-carbamoyl}amino)-1H-pyrazolo[4,3-c]pyridin-3-yl]-propanamide] | 3.9 nM
15 | CC(C)NC(=O)Nc1n[nH]c2cc(NC(=O)N[C@H](C)c3ccccc3)ncc12 [Example 218, 1-(1-methylethyl)-3-[6-({[(1R)-1-phenylethyl]-carbamoyl}amino)-1H-pyrazolo[4,3-c]pyridin-3-yl]urea] | 25.1 nM
16 | C[C@@H](NC(=O)Nc1cc2[nH]nc(NC(=O)Oc3ccccc3)c2cn1)c1ccccc1 [Example 222, phenyl[6-({[(1R)-1-phenylethyl]-carbamoyl}amino)-1H-pyrazolo[4,3-c]pyridin-3-yl]-carbamate] | 3.6 nM

The remaining compounds from weak to strong by IC50, led by results:

Row | IC50 | SMILES
17 | 354 nM | COC(=O)Nc1n[nH]c2cc(NC(=O)N[C@H](C)c3ccccc3)ncc12 [Example 220, (R)-methyl (6-(3-(1-phenylethyl)ureido)-1H-pyrazolo[4,3-c]pyridin-3-yl)carbamate]
18 | 146 nM | C[C@@H](NC(=O)Nc1cc2[nH]nc(NC3COC3)c2cn1)c1ccccc1 [Example 188, 1-[3-(oxetan-3-yl-amino)-1H-pyrazolo[4,3-c]pyridin-6-yl]-3-[(1R)-1-phenylethyl]urea]
19 | 64.3 nM | CC(CC(C)(C)O)Nc1n[nH]c2cc(NC(=O)N[C@H](C)c3ccccc3)ncc12 (stereo partly drawn) [Example 191, 1-{3-[(3-hydroxy-1,3-dimethylbutyl)-amino]-1H-pyrazolo[4,3-c]-pyridin-6-yl}-3-[(1R)-1-phenylethyl]urea]
20 | 47.7 nM | C[C@@H](NC(=O)Nc1cc2[nH]nc(NC(=O)OC(C)(C)C)c2cn1)c1ccccc1 [Example 217, tert-butyl [6-({[(1R)-1-phenylethyl}-carbamoyl}amino)-1H-pyrazolo[4,3-c]pyridin-3-yl}-carbamate]
21 | 32.5 nM | CC(C)COC(=O)Nc1n[nH]c2cc(NC(=O)N[C@H](C)c3ccccc3)ncc12 [Example 219, 2-methylpropyl [6-({[(1R)-1-phenylethyl}-carbamoyl}amino)-1H-pyrazolo[4,3-c]pyridin-3-yl]-carbamate]
22 | 28.4 nM | C[C@@H](NC(=O)Nc1cc2[nH]nc(NCCN3CCOCC3)c2cn1)c1ccccc1 [Example 194, 1-{3-[(2-morpholin-4-ylethyl)amino]-1H-pyrazolo[4,3-c]-pyridin-6-yl}-3-[(1R)-1-phenylethyl]urea]
23 | 27.9 nM | C[C@@H](NC(=O)Nc1cc2[nH]nc(NCC3CCCCO3)c2cn1)c1ccccc1 (stereo partly drawn) [Example 196, 1-[(1R)-1-phenylethyl]-3-{3-[(tetrahydro-2H-pyran-2-yl-methyl)amino]-1H-pyrazolo[4,3-c]-pyridin-6-yl}urea]
24 | 12 nM | C[C@@H](NC(=O)Nc1cc2[nH]nc(NC3CC(N)C3)c2cn1)c1ccccc1 (stereo partly drawn) [Example 216, 1-{3-[(3-amino-cyclobutyl)amino]-1H-pyrazolo[4,3-c]pyridin-6-yl}-3-[(1R)-1-phenylethyl]urea]
25 | 11.7 nM | C[C@@H](NC(=O)Nc1cc2[nH]nc(NC(=O)c3ccccn3)c2cn1)c1ccccc1 [Example 212, N-[6-({[(1R)-1-phenylethyl]-carbamoyl}amino)-1H-pyrazolo[4,3-c]pyridin-3-yl]-pyridine-2-carboxamide]
26 | 9.3 nM | C[C@@H](NC(=O)Nc1cc2[nH]nc(NCc3ccccn3)c2cn1)c1ccccc1 [Example 190, 1-[(1R)-1-phenylethyl]-3-{3-[(pyridin-2-yl-methyl)amino]-1H-pyrazolo[4,3-c]-pyridin-6-yl}urea]
27 | 6.6 nM | COCCOC(=O)Nc1n[nH]c2cc(NC(=O)N[C@H](C)c3ccccc3)ncc12 [Example 221, 2-methoxyethyl [6-({[(1R)-1-phenyl-ethyl]carbamoyl}-amino)-1H-pyrazolo[4,3-c]-pyridin-3-yl]-carbamate]
28 | 4.6 nM | C[C@@H](NC(=O)Nc1cc2[nH]nc(NC(=O)c3ccco3)c2cn1)c1ccccc1 [Example 207, N-[6-({[(1R)-1-phenylethyl]-carbamoyl}amino)-1H-pyrazolo[4,3-c]pyridin-3-yl]-furan-2-carboxamide]
29 | 3.1 nM | CC(CCl)Nc1n[nH]c2cc(NC(=O)N[C@H](C)c3ccccc3)ncc12 (stereo partly drawn) [Example 197, 1-{3-[(2-chloro-1-methylethyl)amino]-1H-pyrazolo[4,3-c]pyridin-6-yl}-3-[(1R)-1-phenylethyl]urea]
30 | 2.8 nM | C[C@@H](NC(=O)Nc1cc2[nH]nc(NC(=O)CC3CCCC3)c2cn1)c1ccccc1 [Example 210, 2-cyclopentyl-N-[6-({[(1R)-1-phenylethyl]-carbamoyl}amino)-1H-pyrazolo[4,3-c]pyridin-3-yl]-acetamide]
31 | 2.2 nM | C[C@@H](NC(=O)Nc1cc2[nH]nc(NCC3CCC3)c2cn1)c1ccccc1 [Example 213, 1-{3-[(cyclobutylmethyl)amino]-1H-pyrazolo[4,3-c]-pyridin-6-yl}-3-[(1R)-1-phenylethyl]urea]
32 | 1.7 nM | CC(C)CNc1n[nH]c2cc(NC(=O)N[C@H](C)c3ccccc3)ncc12 [Example 189, 1-{3-[(2-methylpropyl)-amino]-1H-pyrazolo[4,3-c]-pyridin-6-yl}-3-[(1R)-1-phenylethyl]urea]
33 | 1.6 nM | CC(C)CC(=O)Nc1n[nH]c2cc(NC(=O)N[C@H](C)c3ccccc3)ncc12 [Example 209, 3-methyl-N-[6-({[(1R)-1-phenylethyl]-carbamoyl}amino)-1H-pyrazolo[4,3-c]pyridin-3-yl]-butanamide]
34 | 1.2 nM | C[C@@H](NC(=O)Nc1cc2[nH]nc(NC(=O)C3CCCC3)c2cn1)c1ccccc1 [Example 205, N-[6-({[(1R)-1-phenylethyl]-carbamoyl}amino)-1H-pyrazolo[4,3-c]pyridin-3-yl]-cyclopentane-carboxamide]
35 | 0.5 nM | COC[C@@H](NC(=O)Nc1cc2[nH]nc(NC3COC3)c2cn1)c1ccccc1 [Example 198, 1-[(1S)-2-methoxy-1-phenylethyl]-3-[3-(oxetan-3-yl-amino)-1H-pyrazolo[4,3-c]-pyridin-6-yl]urea]
36 | 0.5 nM | C[C@@H](NC(=O)Nc1cc2[nH]nc(NC(=O)C3CCC3)c2cn1)c1ccccc1 [Example 201, N-[6-({[(1R)-1-phenylethyl]-carbamoyl}amino)-1H-pyrazolo[4,3-c]pyridin-3-yl]-cyclobutane-carboxamide]
37 | 0.5 nM | C[C@@H](NC(=O)Nc1cc2[nH]nc(NC(=O)Cc3ccc(F)cc3)c2cn1)c1ccccc1 [Example 206, 2-(4-fluorophenyl)-N-[6-({[(1R)-1-phenylethyl]-carbamoyl}amino)-1H-pyrazolo[4,3-c]pyridin-3-yl]-acetamide]
